From patent US20250011299A1, “PYRIDAZINYL AMINO DERIVATIVES AS ALK5 INHIBITORS” (CHIESI FARMACEUTICI S.P.A., priority 2021, published 2025)

Target: T1, human ALK5 (Homo sapiens, UniProt P36897)
T1 construct: human ALK5 (recombinant TGF β1 N-term GST-tagged, 80-end); GST (N); purchased
T1 sequence (P36897 80-503 limits assumed): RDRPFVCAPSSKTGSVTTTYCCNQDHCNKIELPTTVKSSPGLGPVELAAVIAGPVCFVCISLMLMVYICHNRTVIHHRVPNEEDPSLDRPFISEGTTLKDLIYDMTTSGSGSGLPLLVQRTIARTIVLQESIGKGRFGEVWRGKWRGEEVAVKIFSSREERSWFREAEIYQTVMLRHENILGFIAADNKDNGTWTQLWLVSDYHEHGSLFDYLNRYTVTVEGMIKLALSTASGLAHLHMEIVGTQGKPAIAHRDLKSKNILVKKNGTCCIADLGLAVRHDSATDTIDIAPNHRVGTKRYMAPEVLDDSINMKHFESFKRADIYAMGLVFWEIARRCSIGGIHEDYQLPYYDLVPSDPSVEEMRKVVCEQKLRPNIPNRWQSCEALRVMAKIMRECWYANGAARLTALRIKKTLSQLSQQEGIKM
Experiment: ADP-GLO Kinases assay of ALK5 enzymatic activity
Format: biochemical
Settings: purified recombinant human ALK5, TGFβ1 peptide substrate, pIC50 converted to pKi by Cheng-Prusoff, high ATP protocol (15 μM) for very potent compounds, 25° C.
How it was run: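 Purified ALK5 preincubated 15 min with compound, then reacted with substrate and ATP; ADP formed read by ADP-Glo luminescence after 120 min or 60 min reaction, all steps at 25° C. 11-point concentration-response; pIC50 converted to pKi via Cheng-Prusoff.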

| Ki [nM] | SMILES |
| --- | --- |
| ≤ 0.1 | CN1CCN([C@H]2C[C@@H](C(=O)Nc3cc(Nc4cc(-c5cc(Cl)ccc5F)nnc4N(C)CC4(C)CCOC4=O)ncn3)C2)CC1 (single isomer, unassigned; enantiomer 2) [Example 144, Cis Enantiomer 2 N-(6-{[6-(5-chloro-2-fluorophenyl)-3-{methyl[(3-methyl-2-oxooxolan-3-yl)methyl]amino}pyridazin-4-yl]amino}pyrimidin-4-yl)-3-(4-methylpiperazin-1-yl)cyclobutane-1-carboxamide] |
| 0.398 to 3.16 | CN(C)CCOc1nnc(-c2cc(Cl)ccc2F)cc1Nc1ccnc2[nH]ncc12 [Example 42, 6-(5-chloro-2-fluorophenyl)-3-[2-(dimethylamino)ethoxy]-N-{1H-pyrazolo[3,4-b]pyridin-4-yl}pyridazin-4-amine] |
